Columns and labels:
[1] = system: Charles River male albino mice; test: PBQ Writhing Assay (analgesic activity); type: in vivo; set-up: key to PBQ WRITHING ASSAY I.G. (Active / *) / PBQ WRITHING ASSAY S.C. (Active / *): *: Indicates that, in accordance with the particular conditions set forth above for the Writhing Assay, and under the test criteria employed for that assay, after the administration of an initial screening dosage of 30 mg per kilogram of the compound, the number of writhes elicited by a mouse injected with PBQ was not equal to, or less than, one-half the median number of writhes recorded for the saline-treated control group of mice that day; conditions: for PBQ WRITHING ASSAY I.G. (Active / *): intragastric; for PBQ WRITHING ASSAY I.G. (Active / *) / PBQ WRITHING ASSAY S.C. (Active / *): initial screening dose 30 mg per kilogram, 30 min before PBQ i.p., writhes counted for ten minutes; for PBQ WRITHING ASSAY S.C. (Active / *): subcutaneous; for ED50: Mus musculus, po, read-out: PBQ WRITHING ASSAY (ED50 (mpk)) I.G.
Source text: The Writhing Assay is one of the most widely-used experimental procedures for measuring the analgesic activity of different narcotic and nonnarcotic analgesic agents, and involves the continuous, chemically-induced pain of visceral origin to an animal, such as a mouse or rat. [Gyires et al., Arch. int. Pharmacodyn, 267, 131-140 (1984); […] al., Fed. Proc., 15, 494 (1956); Koster et al., Fed. Proc., 18, 412 (1959); and Witken et al., J. Pharmacol. exp. Ther., 133, 400-408 (1961).] Chemicals which may be used to induce this pain include phenylbenzoquinone (PBQ) and acetic acid. As a result of the chemical irritation to the animal, a characteristic stretching and writhing of the animal (dorsiflexion of the animal's back, extension of its hindlimbs and the strong contraction of its abdominal musculature) will generally occur. […] Drugs which reduce the number of writhes of the animal appear to restore the normal nociceptive threshold of the animal. Charles River male albino mice, weighing 20 to 30 grams were used in this assay. Thirty minutes after subcutaneous or intragastric administration to ten mice of 30 mg per kilogram of body weight of a compound of the present invention ("test compound"), […] per 10 g of body weight of a 0.025% w/v solution of PBQ was injected intraperitoneally into each mouse. Ten mice which were given saline in place of a test compound of the invention were used as a control group. Five minutes later, each mouse was individually placed into a glass beaker for observation, and the number of writhes occurring during the following ten-minute period was counted. A test compound was considered to have produced analgesia in a mouse if, in accordance with the conditions set forth above, and under the test criteria employed for this assay, after the administration of 30 mg per kilogram of body weight of a compound of the present invention to the mouse, the number of writhes elicited by a mouse injected with PBQ was equal to, or less than, one-half the median number of writhes recorded for the saline-treated control group of mice that day, as described by Taber in "Predictive Value of Analgesic Assays in Mice and Rats," Advances in Biochemical Psychopharmacology, 8, 191 (1974). The standard initial screening dose of a test compound employed in this assay was […] for both routes of administration. If this initial screening dose of the test compound produced analgesia in seven of ten mice, then the effect of additional doses of the test compound on the writhing response was evaluated, and then the ED50 dose was generally calculated. (The slopes of the dose-response curves for all test compounds analyzed were compared as described by Tallarida and Murray, Manual of Pharmacologic Calculations, Page 11 (Springer Verlag, New York, 1981)).

[2] = system: prostaglandin E2-induced contractions of segments of guinea pig ileum; test: Prostaglandin (PGE) Antagonism Assay in guinea pig ileum; type: cell-based; set-up: key to PGE ANTAGONISM IN GUINEA PIG ILEUM (Active): Active: A concentration of test compound was determined to be "active" if it produced a dose ratio significantly greater than that obtained in a series of blank treatments; conditions: for PGE ANTAGONISM IN GUINEA PIG ILEUM (Active): initial concentration of test compound, dose ratio of EC50 dose values versus blank treatments; for Kb: Cavia porcellus, read-out: PGE ANTAGONISM IN GUINEA PIG ILEUM (pA2) (converted)
Experimental: In order to determine the effectiveness of several of the compounds of the present invention ("test compounds") as prostaglandin E2 antagonists, a prostaglandin antagonism assay was conducted, as described below, to determine the ability of these compounds to inhibit prostaglandin E2-induced contractions of segments of guinea pig ileum.
Male albino guinea pigs weighing 200 to 500 grams were sacrificed by cervical dislocation.
The ileums were then quickly removed from the guinea pigs and placed in a modified Tyrode solution, a solution which is known to those of skill in the art, containing one-half of the usual amount of magnesium ions.
Segments of ileum about 2 cm long were then cut and mounted in a 10-mL tissue bath containing the modified Tyrode solution. The solution was maintained at 37°C and aerated with a gaseous mixture of 95% oxygen and 5% carbon dioxide.
Submaximal contractions of the ileum segments were then generated by injecting prostaglandin E2 into the bath, and detected isotonically. Data for a control prostaglandin E2 dose response curve plotting concentration of prostaglandin E2 versus number of contractions generated was then obtained by experimentally adjusting the dose of the prostaglandin E2 being injected into the tissue bath, in a manner known by those of skill in the art.
Solutions or suspensions containing an initial amount of a test compound in modified Tyrode solution ("test solutions/ suspensions") were then separately substituted for the tissue bath. Each test solution/suspension was then kept in constant contact with the ileum tissue, except for brief periods to drain the bath in preparation for rinsing with fresh test solution/suspension. Different doses of prostaglandin E2 were again injected into the test solutions/suspensions.
A second prostaglandin E2 dose response curve was then generated for prostaglandin E2 in the presence of a test compound.
A dose ratio of EC50 dose values was then calculated from the results of each test in a manner known by those of skill in the art. […] Duplicate tests were conducted on each concentration of test compound.
If the initial concentration of a test compound was determined to be "active," then varying concentrations of the test compound were then assayed. As is shown in Table I below, all test compounds analyzed in this assay were determined to be "active" as prostaglandin E2 antagonists at the initial concentration.
The pA2 value (a statistical constant which is a common measure of expressing the potency of a particular drug as a competitive antagonist) was then calculated for each test compound by schild plot calculations, as described by H. O. Schild, "pA, A New Scale for the Measurement of Drug Antagonism," Br. J. Pharmacol, 2, 189 (1947), according to the following mathematical formula: pA2 = -log[Test Compound] to quantitate the effectiveness of the test compounds as prostaglandin E2 antagonists.

Molecule: 8-chlorodibenz[b,f][1,4]oxazepine-10(11H)-carboxylic acid, 2-[1-oxo-3-(4-pyridinyl)propyl]hydrazide, monohydrochloride [Example 26]
- PBQ WRITHING ASSAY (ED50 (mpk)) I.G. ([1]; intragastric administration): 6.8 mpk
- PBQ WRITHING ASSAY I.G. (Active / *) [1]: Active
- PBQ WRITHING ASSAY (ED50 (mpk)) S.C. ([1]; subcutaneous administration): 6.3 mpk
- PBQ WRITHING ASSAY S.C. (Active / *) [1]: Active
- PGE ANTAGONISM IN GUINEA PIG ILEUM (pA2) ([2]; Schild plot calculation): 6.5
- PGE ANTAGONISM IN GUINEA PIG ILEUM (Active) [2]: Active

Molecule: O=C(CCc1ccccn1)NNC(=O)N1Cc2ccccc2Oc2ccc(Cl)cc21 [Example 6, 8-chlorodibenz[b,f][1,4]oxazepine-10(11H)-carboxylic acid, 2-[1-oxo-3-(2-pyridinyl)propyl]hydrazide]
- ED50 ([1]; intragastric administration): 8.6 mg/kg
- PBQ WRITHING ASSAY I.G. (Active / *) [1]: Active
- PBQ WRITHING ASSAY S.C. (Active / *) [1]: Active
- Kb ([2]; Schild plot calculation): 2510 nM
- PGE ANTAGONISM IN GUINEA PIG ILEUM (Active) [2]: Active

Molecule: O=C(CCCc1cccs1)NNC(=O)N1Cc2ccccc2Oc2ccc(Cl)cc21 [Example 9, 8-chlorodibenz[b,f][1,4]oxazepine-10(11H)-carboxylic acid, 2-[1-oxo-4-(2-thienyl)butyl]hydrazide]
- ED50 ([1]; intragastric administration): 6.8 mg/kg
- PBQ WRITHING ASSAY I.G. (Active / *) [1]: Active
- PBQ WRITHING ASSAY S.C. (Active / *) [1]: Active
- Kb ([2]; Schild plot calculation): 25.1 nM
- PGE ANTAGONISM IN GUINEA PIG ILEUM (Active) [2]: Active

Molecule: Cl.O=C(Cc1ccncc1)NNC(=O)N1Cc2ccccc2Oc2ccc(Cl)cc21 [Example 23, 8-chlorodibenz[b,f][1,4]oxazepine-10(11H)-carboxylic acid, 2-(4-pyridinylacetyl)hydrazide, monohydrochloride]
- PBQ WRITHING ASSAY I.G. (Active / *) [1]: *
- PBQ WRITHING ASSAY S.C. (Active / *) [1]: *

Molecule: Cl.O=C(/C=C/c1ccncc1)NNC(=O)N1Cc2ccccc2Oc2ccc(Cl)cc21 [Example 27, 8-chlorodibenz[b,f][1,4]oxazepine-10(11H)-carboxylic acid, 2-[1-oxo-3-(4-pyridinyl)-2E-propenyl]hydrazide, monohydrochloride]
- PBQ WRITHING ASSAY I.G. (Active / *) [1]: *
- PBQ WRITHING ASSAY S.C. (Active / *) [1]: *

Molecule: Cl.O=C(CCCc1ccccn1)NNC(=O)N1Cc2ccccc2Oc2ccc(Cl)cc21 [Example 29, 8-chlorodibenz[b,f][1,4]oxazepine-10(11H)-carboxylic acid, 2-[1-oxo-4-(2-pyridinyl)butyl]hydrazide, monohydrochloride]
- PBQ WRITHING ASSAY I.G. (Active / *) [1]: Active
- PBQ WRITHING ASSAY S.C. (Active / *) [1]: Active

Molecule: O=C(CCCc1ccncc1)NNC(=O)N1Cc2ccccc2Oc2ccc(Cl)cc21 [Example 31, 8-chlorodibenz[b,f][1,4]oxazepine-10(11H)-carboxylic acid, 2-[1-oxo-4-(4-pyridinyl)butyl]hydrazide]
- PBQ WRITHING ASSAY I.G. (Active / *) [1]: Active
- PBQ WRITHING ASSAY S.C. (Active / *) [1]: Active

Molecule: O=C(CCCCc1cccs1)NNC(=O)N1Cc2ccccc2Oc2ccc(Cl)cc21 [Example 33, β-chlorodibenz[b,f][1,4]oxazepine-10(11H)-carboxylic acid, 2-[1-oxo-5-(2-thienyl)pentyl]hydrazide]
- PBQ WRITHING ASSAY I.G. (Active / *) [1]: *
- PBQ WRITHING ASSAY S.C. (Active / *) [1]: *

Molecule: O=C(NNC(=O)C(F)(F)Cc1ccccn1)N1Cc2ccccc2Oc2ccc(Cl)cc21 [Example 37, 8-chlorodibenz[b,f][1,4]oxazepine-10(11H)-carboxylic acid, 2-[2,2-difluoro-1-oxo-3-(2-pyridinyl)propyl]hydrazide]
- ED50 ([1]; intragastric administration): 9.7 mg/kg
- PBQ WRITHING ASSAY I.G. (Active / *) [1]: Active

From patent publication EP0694545B1, “Substituted dibenzoxazepine compounds, pharmaceutical compositions and methods of use” (G.D. SEARLE & CO., priority 1991, dated 1992)
